This note sets out measurements from US12006321B2, “Substituted pyrazolo[1,5-a]pyrimidines as apelin receptor agonists” (Sanford Burnham Prebys Medical Discovery Institute, priority 2017, dated 2024).

The target in the experiment is T1, human apelin receptor (APJ, APLNR) (Homo sapiens, UniProt P35414).
T1 construct: host or cells: Chinese hamster ovary (CHO) cells, stably integrated receptor
T1 sequence (P35414 1-380): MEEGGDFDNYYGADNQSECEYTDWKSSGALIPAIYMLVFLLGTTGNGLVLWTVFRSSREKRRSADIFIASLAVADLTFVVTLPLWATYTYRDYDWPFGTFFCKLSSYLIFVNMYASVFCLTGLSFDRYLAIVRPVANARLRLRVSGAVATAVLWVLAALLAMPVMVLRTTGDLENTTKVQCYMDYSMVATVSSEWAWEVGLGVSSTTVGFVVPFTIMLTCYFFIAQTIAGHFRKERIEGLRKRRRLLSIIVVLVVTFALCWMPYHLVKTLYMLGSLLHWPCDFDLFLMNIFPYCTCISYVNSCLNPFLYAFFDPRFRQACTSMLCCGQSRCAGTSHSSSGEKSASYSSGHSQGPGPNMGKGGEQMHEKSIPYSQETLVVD
As to the kind of experiment: cell-based cAMP assay (TR-FRET) in Chinese hamster ovary cells expressing the apelin receptor. The settings on record: EC50 = 50% of control (apelin-13, 1 nM) response; cAMP in CHO cells, 0.5 h incubation; read-out: Potency Category. The procedure, abridged:
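CHO cells stably expressing human APJ were forskolin-stimulated, then exposed to compound (0.0-100 μM, ≤1% DMSO) for 0.5 h. Lysate cAMP read by competitive TR-FRET immunoassay; EC50 and efficacy expressed relative to 1 nM apelin-13, four-parameter fit over ≥10 concentrations.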

In the case of `Cc1cccc(C)c1-c1c(C)nn2c(Oc3ccccc3)cc(C(=O)O)nc12` [Compound 107, 3-(2,6-dimethylphenyl)-2-methyl-7-phenoxy-8-hydropyrazolo[1,5-a]pyrimidine-5-carboxylic acid], the EC50 is above 500 nM.

As to `CCOC(=O)c1cc(N2CCN(C)CC2)n2nc(C)c(-c3c(C)cccc3C)c2n1` [Compound 108, ethyl 3-(2,6-dimethylphenyl)-2-methyl-7-(4-methylpiperazinyl)-8-hydropyrazolo[1,5-a]pyrimidine-5-carboxylate], the EC50 was above 500 nM.

In the case of `CCOC(=O)c1cc(Oc2ccccc2)n2nc(C)c(-c3c(C)cccc3C)c2n1` [Compound 109, ethyl 3-(2,6-dimethylphenyl)-2-methyl-7-phenoxy-8-hydropyrazolo[1,5-a]pyrimidine-5-carboxylate], the EC50 was above 500 nM.

For the molecule `Cc1cccc(C)c1-c1c(C)nn2c(C(C)C)cc(N)nc12` [Compound 110, 3-(2,6-dimethylphenyl)-2-methyl-7-(methylethyl)-8-hydropyrazolo[1,5-a]pyrimidine-5-ylamine], the EC50 was above 500 nM.

With `CC(=O)Nc1cc(C(C)C)n2nc(C)c(-c3c(C)cccc3C)c2n1` [Compound 111, N-[3-(2,6-dimethylphenyl)-2-methyl-7-(methylethyl)-8-hydropyrazolo[1,5-a]pyrimidin-5-yl]acetamide], the EC50 was above 500 nM.

In the case of `CCOC(=O)c1cc(C(C)C)n2nc(C)c(-c3c(F)cccc3Cl)c2n1` [Compound 112, ethyl 3-(2-chloro-6-fluorophenyl)-2-methyl-7-(methylethyl)-8-hydropyrazolo[1,5-a]pyrimidine-5-carboxylate], the EC50 is above 500 nM.

Regarding `Cc1nn2c(C(C)C)cc(C(=O)O)nc2c1-c1c(F)cccc1Cl` [Compound 113, 3-(2-chloro-6-fluorophenyl)-2-methyl-7-(methylethyl)-8-hydropyrazolo[1,5-a]pyrimidine-5-carboxylic acid], the EC50 was above 500 nM.

Consider `CCOC(=O)c1cc(C(C)C)n2nc(C)c(-c3c(Cl)cccc3Cl)c2n1` [Compound 114, ethyl 3-(2,6-dichlorophenyl)-2-methyl-7-(methylethyl)-8-hydropyrazolo[1,5-a]pyrimidine-5-carboxylate], for which the EC50 was above 500 nM.

Turning to `Cc1nn2c(C(C)C)cc(C(=O)O)nc2c1-c1c(Cl)cccc1Cl` [Compound 115, 3-(2,6-dichlorophenyl)-2-methyl-7-(methylethyl)-8-hydropyrazolo[1,5-a]pyrimidine-5-carboxylic acid], the EC50 was above 500 nM.

Consider `CCc1cccc(CC)c1-c1c(C)nn2c(C(C)C)cc(C(=O)O)nc12` [Compound 116], for which the EC50 is 200 to 500 nM.

Consider `CCOC(=O)c1cc(Nc2ccccc2)n2nc(C)c(-c3c(C)cccc3C)c2n1` [Compound 117, ethyl 3-(2,6-dimethylphenyl)-2-methyl-7-(phenylamino)-8-hydropyrazolo[1,5-a]pyrimidine-5-carboxylate], for which the EC50 is above 500 nM.

With `Cc1cccc(C)c1-c1c(C)nn2c(Nc3ccccc3)cc(C(=O)O)nc12` [Compound 118, 3-(2,6-dimethylphenyl)-2-methyl-7-(phenylamino)-8-hydropyrazolo[1,5-a]pyrimidine-5-carboxylic acid], the EC50 is above 500 nM.

For `COc1cccc(Cl)c1-c1c(C)nn2c(C(C)C)cc(C(=O)O)nc12` [Compound 119, 3-(6-chloro-2-methoxyphenyl)-2-methyl-7-(methylethyl)-8-hydropyrazolo[1,5-a]pyrimidine-5-carboxylic acid], the EC50 is above 500 nM.

As for `Cc1nn2c(C(C)C)cc(C(=O)O)nc2c1-c1c(F)cccc1C#N` [Compound 120, 3-(2-cyano-6-fluorophenyl)-2-methyl-7-(methylethyl)-8-hydropyrazolo[1,5-a]pyrimidine-5-carboxylic acid], the EC50 was above 500 nM.

Take `CCc1cccc(C)c1-c1c(C)nn2c(C(C)C)cc(C(=O)O)nc12` [Compound 121, 3-(6-ethyl-2-methylphenyl)-2-methyl-7-(methylethyl)-8-hydropyrazolo[1,5-a]pyrimidine-5-carboxylic acid]: the EC50 is above 500 nM.
